{
  "source": "patent US12490739B2",
  "about": "“Synergistically effective fungicide composition comprising choline phosphonate and at least one additional fungicide” (BELCHIM CROP PROTECTION NV, priority 2019, dated 2025)",
  "system": "Plasmopara viticola",
  "test": "Example 6 field trials, Vitis vinifera infected with downy mildew",
  "assay_type": "in vivo",
  "conditions": "120 g a.c./ha",
  "data": [
    {"smiles": "CCC(C)(NC(=O)c1cc(Cl)c(C)c(Cl)c1)C(=O)CCl", "note": "(racemic) [ZOX, (RS)-3,5-dichloro-N-(3-chloro-1-ethyl-1-methyl-2-oxopropyl)-ptoluamide]", "values": [
      {"measurement": "ZOX f.e. (%)", "setting": "PESINC, location 1 (France, Negrette), 50 bunches, 1 DA-A6, BBCH 69", "value": 73.0, "unit": "%"},
      {"measurement": "ZOX f.e. (%)", "setting": "PESINC, location 1 (France, Negrette), 50 bunches, 1 DA-A8, BBCH 75", "value": 18.0, "unit": "%"},
      {"measurement": "ZOX f.e. (%)", "setting": "PESINC, location 1 (France, Negrette), 50 bunches, 16 DA-A9, BBCH 81", "value": 1.0, "unit": "%"},
      {"measurement": "ZOX f.e. (%)", "setting": "PESINC, location 2 (France, Grenache), 50 bunches, 9 DA-A4, BBCH 71", "value": 10.0, "unit": "%"},
      {"measurement": "ZOX f.e. (%)", "setting": "PESINC, location 2 (France, Grenache), 50 bunches, 9 DA-A4, BBCH 77", "value": 0.0, "unit": "%"},
      {"measurement": "ZOX f.e. (%)", "setting": "PESINC, location 2 (France, Grenache), 100 leaves, 6 DA-A5, BBCH 77", "value": 0.0, "unit": "%"},
      {"measurement": "ZOX f.e. (%)", "setting": "PESINC, location 2 (France, Grenache), 100 leaves, 9 DA-A4, BBCH 71", "value": 22.8, "unit": "%"},
      {"measurement": "ZOX f.e. (%)", "setting": "PESINC, location 3 (Germany, Mueller-Thurgau), 50 bunches, 11 DA-A4, BBCH 75", "value": 48.8, "unit": "%"},
      {"measurement": "ZOX f.e. (%)", "setting": "PESINC, location 3 (Germany, Mueller-Thurgau), 100 leaves, 7 DA-A8, BBCH 83", "value": 16.0, "unit": "%"},
      {"measurement": "ZOX f.e. (%)", "setting": "PESINC, location 3 (Germany, Mueller-Thurgau), 100 leaves, 13 DA-A6, BBCH 83", "value": 18.7, "unit": "%"},
      {"measurement": "ZOX f.e. (%)", "setting": "PESSEV, location 1 (France, Negrette), 50 bunches, 1 DA-A8, BBCH 75", "value": 75.2, "unit": "%"},
      {"measurement": "ZOX f.e. (%)", "setting": "PESSEV, location 1 (France, Negrette), 50 bunches, 16 DA-A9, BBCH 81", "value": 51.7, "unit": "%"},
      {"measurement": "ZOX f.e. (%)", "setting": "PESSEV, location 2 (France, Grenache), 50 bunches, 8 DA-A5, BBCH 77", "value": 21.4, "unit": "%"},
      {"measurement": "ZOX f.e. (%)", "setting": "PESSEV, location 2 (France, Grenache), 50 bunches, 9 DA-A4, BBCH 71", "value": 81.3, "unit": "%"},
      {"measurement": "ZOX f.e. (%)", "setting": "PESSEV, location 2 (France, Grenache), 50 bunches, 9 DA-A6, BBCH 79", "value": 1.3, "unit": "%"},
      {"measurement": "ZOX f.e. (%)", "setting": "PESSEV, location 2 (France, Grenache), 100 leaves, 6 DA-A5, BBCH 77", "value": 15.1, "unit": "%"},
      {"measurement": "ZOX f.e. (%)", "setting": "PESSEV, location 2 (France, Grenache), 100 leaves, 9 DA-A4, BBCH 71", "value": 67.7, "unit": "%"},
      {"measurement": "ZOX f.e. (%)", "setting": "PESSEV, location 3 (Germany, Mueller-Thurgau), 50 bunches, 7 DA-A8, BBCH 83", "value": 48.9, "unit": "%"},
      {"measurement": "ZOX f.e. (%)", "setting": "PESSEV, location 3 (Germany, Mueller-Thurgau), 50 bunches, 11 DA-A4, BBCH 75", "value": 80.2, "unit": "%"},
      {"measurement": "ZOX f.e. (%)", "setting": "PESSEV, location 3 (Germany, Mueller-Thurgau), 50 bunches, 13 DA-A6, BBCH 83", "value": 49.2, "unit": "%"},
      {"measurement": "ZOX f.e. (%)", "setting": "PESSEV, location 3 (Germany, Mueller-Thurgau), 100 leaves, 13 DA-A6, BBCH 83", "value": 52.1, "unit": "%"}
    ]}
  ]
}
